Patent publication US20240287172A1, “PROTEIN BINDERS TO IRHOM2 EPITOPES” (SCIRHOM GMBH, priority 2019, published 2024)

Test system: PMA-induced release of endogenous IL-6R from PBMCs from healthy donors
Assay: ELISA-based IL-6R release assay, PMA-induced, PBMCs from healthy donors
Type: cell-based
Settings: Homo sapiens, PBMC; PMA 25 ng/ml, 6 hours; recombinant murine antibodies and IgG at 1 μg/ml; Batimastat at 10 μM
Procedure: In brief, on day 1, Nunc black MaxiSorp® 96-well plates (Thermo Fisher Scientific, USA) were coated overnight with 100 μl per well of mouse anti-human IL-6R capture antibody (provided as part of the DuoSet ELISA kit) at 4 μg/ml TBS at 4° C. On day 2, the capture antibody solution was removed and MaxiSorp® plates were blocked with 300 μl per well of TBS, 1% BSA at room temperature for 3 hours. Meanwhile, 40,000 PBMC from healthy donors (STEMCELL Technologies, Canada) cells in 80 μl of normal growth medium were seeded in each well of Greiner CELLSTAR V-bottom 96-well plates (Thermo Fisher Scientific, USA) and pre-incubated with 20 μl per well of standard growth medium supplemented with Batimastat (BB94, Abcam, UK) at 50 μM as positive control (for a final concentration of 10 μM in the resulting 100 μl sample volume), mouse IgG antibody (Thermo Fisher Scientific, USA) at 5 μg/ml as isotype control (for a final concentration of 1 μg/ml in the resulting 100 μl sample volume) or antibodies of the invention at 5 μg/ml (for a final concentration of 1 μg/ml in the resulting 100 μl sample volume) at 37° C., 5% CO2 for 30 minutes. […] Using an infinite M1000 (Tecan Group, Switzerland) microplate reader, the fluorescence of each well was collected at an excitation wavelength of 435 nm and an emission wavelength of 555 nm.

Compound `CNC(=O)[C@H](Cc1ccccc1)NC(=O)[C@H](CC(C)C)[C@H](CSc1cccs1)C(=O)NO` [Batimastat] has an inhibition at 10 µM of 114%.
